In ChEMBL document CHEMBL3727363, “Imidazothiadiazole derivatives as protease activated receptor 4 (PAR4) inhibitors for treating platelet aggregation” (2013) one finds Activity, IC50 and inhibition data, which are given here for six compounds.

pIC50: −log10 of the molar value.

The subject of experiment [1] is Cynomolgus monkey. Kind of experiment: Antithrombotic activity in cynomolgus monkey model of electrolytic injury-induced carotid artery thrombosis assessed as reduction in thrombosis-induced occlusion by measuring thrombus weight at 0.4 mg/kg, po dosed 1 to 2 hrs before test. It counts as functional, Macaca fascicularis. More on the design: scale not given: the % may be the effect or the level left.

Experiment [2] has as its system Cynomolgus monkey. Kind of experiment: Antithrombotic activity in cynomolgus monkey model of electrolytic injury-induced carotid artery thrombosis assessed as reduction in thrombosis-induced occlusion by measuring thrombus weight at 2 mg/kg, po dosed 1 to 2 hrs before test. It is filed as functional, Macaca fascicularis. On the set-up: scale not given: the % may be the effect or the level left.

For experiment [3], the system named is Cynomolgus monkey. Kind of experiment: Antithrombotic activity in cynomolgus monkey model of electrolytic injury-induced carotid artery thrombosis assessed as reduction in thrombosis-induced occlusion by measuring thrombus weight at 10 mg/kg, po dosed 1 to 2 hrs before test. It is filed as functional, Macaca fascicularis. More on the design: scale not given: the % may be the effect or the level left.

In experiment [4] the target is T1, Proteinase-activated receptor 4 (Homo sapiens, UniProt Q96RI0).
T1 sequence (Q96RI0 whole entry): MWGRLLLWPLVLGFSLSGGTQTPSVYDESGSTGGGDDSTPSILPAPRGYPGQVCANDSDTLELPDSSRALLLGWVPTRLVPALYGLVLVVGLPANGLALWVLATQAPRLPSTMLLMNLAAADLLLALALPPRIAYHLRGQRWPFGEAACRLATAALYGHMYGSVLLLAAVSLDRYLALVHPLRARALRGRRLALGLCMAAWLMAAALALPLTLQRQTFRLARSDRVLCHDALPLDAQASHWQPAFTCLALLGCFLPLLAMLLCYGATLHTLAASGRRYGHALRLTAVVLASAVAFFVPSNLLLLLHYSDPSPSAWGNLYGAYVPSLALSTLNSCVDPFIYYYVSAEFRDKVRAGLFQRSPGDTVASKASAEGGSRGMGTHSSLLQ
Kind of experiment: Antagonist activity against human PAR4 expressed in HEK293 cells assessed as reduction in H-Ala-Phe(4-F)-Pro-Gly-Trp-Leu-Val-Lys-Asn-Gly-NH2-induced intracellular calcium mobilization incubated for 30 mins before agonist addition by FLIPR assay. It is filed as functional, cell-based.

Experiment [5] addresses T2, Proteinase-activated receptor 4 (Homo sapiens) (UniProt Q96RI0).
T2 sequence (whole entry): T1 sequence (Q96RI0 whole entry)
Kind of experiment: Antagonist activity against PAR4 in washed human platelets assessed as inhibition of […] alpha-thrombin-induced platelet aggregation pre-incubated for 5 mins before alpha-thrombin addition by optical aggregometry. It is filed as functional.

The target of experiment [6] is T2, Proteinase-activated receptor 4 (Homo sapiens). The experiment in a line: Antagonist activity against PAR4 in washed human platelets assessed as inhibition of 5 nM alpha-thrombin-induced platelet aggregation pre-incubated for 5 mins before alpha-thrombin addition by optical aggregometry. It is filed as functional.

Turning to `COc1cc(OCc2cccc(OCc3ccccc3)c2)c2cc(-c3cn4nc(OC)sc4n3)oc2c1`, the Activity in the experiment with Cynomolgus monkey [1] is recorded as -9%; in the experiment on Cynomolgus monkey [2], -38%; in the experiment on Cynomolgus monkey [3], -38%.

Take `CSc1nn2cc(-c3cc4c(C(F)(F)F)cc(C)nc4o3)nc2s1`: the pIC50 in experiment [4] was 8.09.

`COc1cc(OCc2ccccc2)c2cc(-c3cn4nc(OC)sc4n3)oc2c1`: the inhibition result in experiment [5] and in experiment [6] was “Dose-dependent effect” in each case.

For `COc1cccc2oc(-c3cn4nc(SC)sc4n3)cc12`, the pIC50 in experiment [4] was 7.96.

As for `COc1nn2cc(-c3cc4ccc([N+](=O)[O-])cc4o3)nc2s1`, the pIC50 in experiment [4] is 7.42.

Turning to `COc1cc(OCc2cccc(OCc3ccc(OC)c(C)c3C)c2)c2cc(-c3cn4nc(OC)sc4n3)oc2c1`, the pIC50 in experiment [4] was 8.26.

By pIC50 is commonly meant −log10 of the IC50, conventionally taken in molar units.
